According to PubChem BioAssay AID270 (DTP/NCI, 2004):
Where “and” joins values, the source holds several entries; their conditions need not be identical. Equal values may be shown once. Inconclusive results are not listed.

System: BDF1 mice, s.c. Lewis lung carcinoma, T/C %
Assay: NCI In Vivo Anticancer Drug Screen. Data for tumor model Lewis Lung Carcinoma (subcutaneous) in B6D2F1 (BDF1) mice
Outline: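 Antitumor effect in vivo is scored from survival or tumor burden, reported as treated relative to vehicle controls.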

[1] = endpoint: median survival time, dose: 12.5 mg/kg/injection, schedule: Q01DX009 (ip), vehicle: Klucel (hydroxypropylcellulose) (HPC), higher = longer survival
[2] = endpoint: median survival time, dose: 25.0 mg/kg/injection, schedule: Q01DX009 (ip), vehicle: Klucel (hydroxypropylcellulose) (HPC), higher = longer survival
[3] = endpoint: median survival time, dose: 12.5 mg/kg/injection, schedule: Q01DX009 (ip), vehicle: saline, higher = longer survival
[4] = endpoint: median survival time, dose: 25.0 mg/kg/injection, schedule: Q01DX009 (ip), vehicle: saline, higher = longer survival

CS(=O)(=O)OCCCCOS(C)(=O)=O
T/C (endpoint: mean tumor weight, dose: 12.5 mg/kg/injection, schedule: Q01DX011 (ip), vehicle: carboxymethylcellulose (CMC), higher = larger tumour): 91 % of control and 104 % of control | T/C (endpoint: median survival time, dose: 10.0 mg/kg/injection, schedule: Q01DX009 (ip), vehicle: Klucel (hydroxypropylcellulose) (HPC), higher = longer survival): 94 % of control | T/C (endpoint: median survival time, dose: 10.0 mg/kg/injection, schedule: Q01DX009 (ip), vehicle: saline with Tween-80, higher = longer survival): 100 % of control | T/C (endpoint: median survival time, dose: 20.0 mg/kg/injection, schedule: Q01DX009 (ip), vehicle: saline with Tween-80, higher = longer survival): 93 % of control | T/C (endpoint: median survival time, dose: 40.0 mg/kg/injection, schedule: Q01DX009 (ip), vehicle: Klucel (hydroxypropylcellulose) (HPC), higher = longer survival): 92 % of control | T/C (endpoint: median tumor weight (est.), dose: 10.0 mg/kg/injection, schedule: Q01DX009 (ip), vehicle: saline with Tween-80, higher = larger tumour): 86 % of control | T/C (endpoint: median tumor weight (est.), dose: 20.0 mg/kg/injection, schedule: Q01DX009 (ip), vehicle: saline with Tween-80, higher = larger tumour): 80 % of control | T/C (endpoint: median tumor weight (est.), dose: 40.0 mg/kg/injection, schedule: Q01DX009 (ip), vehicle: saline with Tween-80, higher = larger tumour): 45 % of control

COc1c(OC)c(O)c2c(=O)cc(-c3ccc(O)cc3)oc2c1OC
T/C (endpoint: mean tumor weight, dose: 25.0 mg/kg/injection, schedule: Q01DX011 (sc), vehicle: steriod suspending solution, higher = larger tumour): 100 % of control | T/C (endpoint: mean tumor weight, dose: 50.0 mg/kg/injection, schedule: Q01DX011 (sc), vehicle: steriod suspending solution, higher = larger tumour): 81 % of control | T/C (endpoint: mean tumor weight, dose: 100.0 mg/kg/injection, schedule: Q01DX011 (sc), vehicle: steriod suspending solution, higher = larger tumour): 85 % of control | T/C (endpoint: mean tumor weight, dose: 200.0 mg/kg/injection, schedule: Q01DX011 (sc), vehicle: steriod suspending solution, higher = larger tumour): 68 % of control

S=P(NCCNP(=S)(N1CC1)N1CC1)(N1CC1)N1CC1
T/C (endpoint: median survival time, dose: 6.25 mg/kg/injection, schedule: Q01DX009 (ip), vehicle: Klucel (hydroxypropylcellulose) (HPC), higher = longer survival): 100 % of control | T/C [1]: 102 % of control | T/C [2]: 104 % of control

NC(Cc1cc(Cl)c(O)c(Cl)c1)C(=O)O (stereo unspecified)
T/C (endpoint: median survival time, dose: 18.75 mg/kg/injection, schedule: Q01DX009 (ip), vehicle: saline, higher = longer survival): 115 % of control | T/C (endpoint: median survival time, dose: 37.5 mg/kg/injection, schedule: Q01DX009 (ip), vehicle: saline, higher = longer survival): 117 % of control | T/C (endpoint: median survival time, dose: 75.0 mg/kg/injection, schedule: Q01DX009 (ip), vehicle: saline, higher = longer survival): 115 % of control

O=NN(CCCl)C(=O)NC1CC2CCC1C2 (stereo unspecified)
T/C (endpoint: median survival time, dose: 10.0 mg/kg/injection, schedule: Q01DX001 (ip), vehicle: Klucel (hydroxypropylcellulose) (HPC), higher = longer survival): 102 % of control and 108 % of control | T/C (endpoint: median survival time, dose: 20.0 mg/kg/injection, schedule: Q01DX001 (ip), vehicle: Klucel (hydroxypropylcellulose) (HPC), higher = longer survival): 99 % of control and 102 % of control | T/C (endpoint: median survival time, dose: 40.0 mg/kg/injection, schedule: Q01DX001 (ip), vehicle: Klucel (hydroxypropylcellulose) (HPC), higher = longer survival): 106 % of control | T/C (endpoint: median survival time, dose: 80.0 mg/kg/injection, schedule: Q01DX001 (ip), vehicle: Klucel (hydroxypropylcellulose) (HPC), higher = longer survival): 260 % of control | T/C (endpoint: median survival time, dose: 160.0 mg/kg/injection, schedule: Q01DX001 (ip), vehicle: Klucel (hydroxypropylcellulose) (HPC), higher = longer survival): 117 % of control

C=C(C)C(=O)O[C@H]1CC2=C[C@@H](C[C@@]3(C)O[C@@H]3[C@H]3OC(=O)C(=C)[C@@H]31)OC2=O
T/C (endpoint: mean tumor weight, dose: 2.0 mg/kg/injection, schedule: Q01DX011 (ip), vehicle: saline, higher = larger tumour): 171 % of control | T/C (endpoint: mean tumor weight, dose: 4.0 mg/kg/injection, schedule: Q01DX011 (ip), vehicle: saline, higher = larger tumour): 118 % of control | T/C (endpoint: mean tumor weight, dose: 8.0 mg/kg/injection, schedule: Q01DX011 (ip), vehicle: saline, higher = larger tumour): 107 % of control

CCCC1CCC(=C2C(=O)CCC2=O)O1 (stereo unspecified)
T/C (endpoint: median survival time, dose: 3.13 mg/kg/injection, schedule: Q01DX009 (ip), vehicle: saline, higher = longer survival): 102 % of control | T/C (endpoint: median survival time, dose: 6.25 mg/kg/injection, schedule: Q01DX009 (ip), vehicle: saline, higher = longer survival): 111 % of control | T/C [3]: 105 % of control | T/C [4]: 101 % of control

COc1cc2c(cc1Oc1c(Oc3c(O)c(OC)cc4c3C(CC(C)C)N(C)CC4)c(OC)cc3c1C(CC(C)C)N(C)CC3)C(CC(C)C)N(C)CC2 (stereo unspecified)
T/C [1]: 92 % of control | T/C [2]: 98 % of control | T/C (endpoint: median survival time, dose: 50.0 mg/kg/injection, schedule: Q01DX009 (ip), vehicle: Klucel (hydroxypropylcellulose) (HPC), higher = longer survival): 88 % of control

COc1cccc(/C=N/NC(=O)c2ccccc2N2CCCC2)c1O
T/C (endpoint: median survival time, dose: 100.0 mg/kg/injection, schedule: Q01DX009 (ip), vehicle: olive oil, sesame oil, peanut oil, higher = longer survival): 90 % of control

CC1(C)N=C(N)N=C(N)N1c1ccc(F)c(C(F)(F)F)c1
T/C [3]: 121 % of control | T/C [4]: 111 % of control
